Tests used:
[1] = tested on: autochthonous BRAFV600E PTEN−/− melanoma model; assay: Autochthonous tumor study: tumor growth, Gr-1 IHC, flow cytometry of tumor-infiltrating cells, serial biopsy qRT-PCR; assay type: in vivo, mouse
Protocol: B6.Cg-Braf^tm1MmcmPten^tm1Hwu Tg(Tyr-cre/ERT2 H-2^b)13Bos/BosJ transgenic mice were subdermally injected with 4-Hydroxytomoxifen (4-HT) (Sigma, H6278-50MG CCF, 38.75 μg/mouse) to induce primary melanoma development at the base of the tail. Mice were randomly assigned to treatment cohorts once tumor volumes reached 64 mm^3 (19, 30, 50). Depending on the experiment, mice were treated with the following agents: CXCR2 inhibitor (AZD5069, AstraZeneca) at 100 mg/kg per os (po) twice daily, NLRP3 inhibitor (MCC950) 10 mg/kg i.p every other day, anti-PD1 ab (BioXCell) or rat IgG2a isotype control (BioXCell) at 200 μg by i.p. injection every 3 days, Dacarbazine (50 mg/kg or 75 mg/kg, Sigma-Aldrich, D2390) by i.p. injection once every other day. Melanoma growth was monitored by orthogonal caliper measurements every 3 days.
Tumors were resected and mechanically disaggregated by a gentleMACS dissociator (Miltenyi), filtered through 70-μm filters and digested with RPMI containing collagenase IV (1 mg/mL, Sigma-Aldrich), hyaluronidase (0.1 mg/mL, Sigma-Aldrich), and deoxyribonuclease (20 U/mL, Sigma-Aldrich) on a shaker at 250 rpm at 37° C. for 1 hour (23). Resected splenic and lymph node tissues were mechanically disaggregated using 1 cc syringe plunger and 40 μm filters followed by treatment with RBC lysis buffer (Sigma-Aldrich).
Paraffin-embedded tissues were processed and stained following standard protocols and imaged with a Zeiss CLSM 700 confocal microscope. The following antibodies were used in immunohistochemistry and immunofluorescence experiments: anti-Wnt5a (1 μg/ml), anti-Ly6G (0.5 μg/ml), anti-CD8a (0.5 μg/ml) and anti-CXCL5 (1 μg/ml). Tissue was permeabilized by incubation in 0.4% Triton-X in TBS for 20 min. Goat anti-rabbit conjugated to Alexa Fluor 564 and goat anti-mouse Alexa 488 were used as secondary antibodies for the appropriate primary antibody. For immunohistochemistry, anti-rat polymers were used as secondary antibodies and Warp Red chromogen detection system (BioCare, WR806S) was used for antigen visualization.
One million cells were stained with 1 μg per million cells of each fluorochrome conjugated antibodies or commercially available dyes according to the standard protocols and analyzed using a FACSCanto II or LSRII (Becton Dickinson). Cells were stained with Fc receptor blocking antibodies followed by a live/dead discriminator (CellTrace Violet, ThermoFisher, C34571), then by conjugated antibodies for 30 min at 4° C. Cell number was calculated by hemocytometer. Flow cytometry data was analyzed using Flowjo software v10.3.
Total RNA was isolated by RNeasy Plus Mini Kit (Qiagen, 74134). […] All data were normalized to Actb expression, and relative gene expression was quantitated based on the 2_DDCt method.

[2] = tested on: WM266 human melanoma cell line; assay: In vitro treatment of human melanoma cell line followed by Western blot; assay type: cell-based; conditions: with or without TLR4 inhibitor; in a TLR4-dependent manner
Description: FIG. 7A-G. The PD-L1/NLRP3/HSP70 PMN-MDSC adaptive recruitment pathway in human melanoma. (A) Supernatant HSP70 and caspase-1 p20 Western blot analysis following treatment of human WM266 melanoma cells with IFN-γ with or without anti-PD-L1 Ab. Blots are representative of 3 independent experiments. (B) Wnt5A Western blot analysis of HSP70-treated human WM266 melanoma cells with or without TLR4 inhibitor. Blots are representative of 3 independent experiments. (C) HSP70 and caspase-1 p20 Western blot analysis following treatment of human WM266 melanoma cells with ATP in the absence and presence of MCC950. Blots are representative of 2 independent experiments. (D) Cytolytic T cell markers correlated with ITGAM (CD11B), CD33, and NLRP3 gene expression in the melanoma TCGA-SKCM database. (E) RNA-Seq analysis of human melanoma tissue specimens collected before anti-PD-1 Ab therapy and at the time of disease progression on anti-PD-1 Ab therapy. TPM, transcripts per million. (F) Plasma HSP70 ELISA at week 0 and week 12 in patients with advanced melanoma undergoing anti-PD-1 Ab immunotherapy. (G) Change in HSP70 plasma levels following anti-PD-1 Ab immunotherapy in patients with advanced melanoma who were responders (R) or nonresponders (NR). The response was based on week-12 CT imaging. HSP70 changes were normalized to target tumor burden based on week-12 CT imaging. […]

[3] = tested on: BRAFV600E PTEN−/− melanoma cell line; assay: In vitro treatment of melanoma cell line followed by Western blot, qRT-PCR, IP, ASC polymerization or ELISA; assay type: cell-based, mouse
Description: Braf^V600EPten^−/− (male, BPD6 (40)), Braf^V600EPten^−/−-Wnt5a^KD (40), Braf^V600EPten^−/−-CXCL5^KD, Braf^V600EPten^−/−-PDL1^KD, Braf^V600EPten^−/−-NLRP3^KD, OVA-expressing Braf^V600EPten^−/−, BRAF^V600EPTEN^−/−-STAT3^CA, and Braf^V600EPten^−/−-NTC (40) cell lines were generated using shRNA-expressing lentiviral vectors and cultured as previously described (40): shNLRP3 (Sigma, SHCLN-NM_145827), shPDL1 (Sigma, SHCLND-NM_021893), shWnt5a (Sigma, SHCLND-NM_009524), shTLR4 (Sigma, SHCLNG-NM_025817, and pLKO.1-puro empty vector control (NTC) (Sigma, SHC001). Stable cell lines were selected by puromycin resistance (Sigma-Aldrich, P8833). Murine Lewis Lung Carcinoma (LLC) cell line is from ATCC (1704526). All cell lines were tested Mycoplasma-free by Duke University Cell Culture Facility shared services. All Braf^V600EPten^−/− cell lines and the LLC cell line were maintained at 37° C. in DMEM (Invitrogen) with 2 mM L-glutamine, supplemented with 10% fetal bovine serum, 100 units/ml penicillin. Depending on the experiment, cell lines were treated with Wnt5a (100-200 ng/ml, R&D Systems/Bio-techne, 645-WN-010), IFNγ (100 ng/ml, BioAbChem, 42-IFNg), anti-PD-L1 ab (1-2 μg/ml), Hsp70 (1 μM-10 μM, Enzo, ADI-ESP-502-D), Hsp70 inhibitor (ThermoFisher, VER155008), CLI-095 TLR4 inhibitor (3 μM-10 μM, Invivogen, tlrl-cli95), TLR2-IN-C29 TLR2 inhibitor (1 μM-10 μM, Glixx, GLXC-06203), MPLA TLR4 agonist (10 μM, Enzo, ALX-581-205-C100), LPS (Lipopolysaccharide) (10 ng, Sigma-Aldrich, L4391-1MG), ATP (1 mM-5 mM, Invivogen, tlrl-atpl), MCC950 NLRP3 inhibitor (2.5 μM-10 μM, Invivogen, inh-mcc), XAV939 β-catenin inhibitor (0.5-1.0 μM, Sigma-Aldrich, X3004-5MG), 2-Aminopurine PKR inhibitor (1 mM-5 mM, Invivogen, tlrl-apr), Verteporfin YAP inhibitor (0.1 μM-1 μM, R&D Systems/Bio-techne, 530510) or vehicle control either for 24 or 48 hrs prior to in vitro and in vivo experiments. Control siRNA (Santa Cruz, sc-37007). TLR4 siRNA (SantaCruz, sc-40261).
OT-1 CD8 cell activation was performed by incubating isolated splenocytes of OT-1 transgenic mice with IL-2 (100 U/ml) and SIINFEKL peptide (1 μg/ml, New England Peptide, BP10-915) for 3 days followed by magnetic bead CD8 purification according to the manufacturer's instructions (Miltenyi biotec, 130-104-075). Activated OT-1 CD8 cells were incubated with Braf^V600EPten^−/−-OVA cells and treated with anti-PD1 ab (1 μg/ml) for 72 hrs at a tumor cell:CD8^+ T cell ratio of 1:5. In separate experiments, Braf^V600EPten^−/− cells were treated with increasing concentrations of Dacarbazine (10 μmol-400 μmol).
Tumor tissue or cells were homogenized in NP40 lysis buffer (Sigma-Aldrich) supplemented with complete protease inhibitor and phosphatase inhibitor (Roche). Cells were lysed in Laemmli sample buffer after treatment and subjected to SDS-polyacrylamide gel electrophoresis. After transferring onto PVDF membranes (Bio-Rad), monoclonal and polyclonal primary antibodies and appropriate HRP-conjugated secondary antibodies were utilized for blotting. For the immunoprecipitation assays, cells were lysed with TBS buffer (50 mM Tris-HCl (pH 7.4), 150 mM NaCl) containing 0.5% Triton X-100, EDTA-free protease inhibitor cocktail and phosphatase inhibitor cocktail, precleared with protein A/G beads, and then incubated with 1 μg of appropriate antibodies or isotype control IgG on a rotator overnight at 4° C. then incubated with protein A/G-agarose at 4° C. for 1 hour. After 5 washes with TBS buffer, immunoprecipitated complexes were eluted in sample buffer by boiling and subjected to immunoblot analysis. Immunoblots were visualized by chemiluminescence substrate (ThermoFisher) and imaged by a ChemiDoc XRSplus system (BioRad). For the ASC polymerization assay, cells were lysed with TBS buffer containing 0.5% Triton X-100, EDTA-free protease inhibitor cocktail and phosphatase inhibitor cocktail. The lysates were centrifuged at 4,000 g at 4° C. for 15 min. […]

[4] = CXCR2 inhibitor 100 mg/kg po twice daily combined with anti-PD-1 Ab

## C[C@@H](Oc1cc(NS(=O)(=O)N2CCC2)nc(SCc2cccc(F)c2F)n1)[C@@H](O)CO [AZD5069]
[1]; [4]
  CD8+ T cell tumor infiltration: enhanced
  PMN-MDSC recruitment in response to anti-PD-1 Ab therapy: significantly suppressed
  tumor progression: suppressed
[1]; correlating with the period of PMN-MDSC influx into the tumor
  time dependence of impact on tumor volume change rate: more significant at later time points

## HSP70: recombinant HSP70 (1 μM-10 μM, Enzo, ADI-ESP-502-D)
[2]
  Wnt5a upregulation by HSP70: induced
[3]; pharmacologic inhibitor and shRNA silencing studies
  receptor dependence of HSP70 stimulation of Wnt5a expression: TLR4 dependent
[3]; titrated concentrations, in a dose-dependent manner
  Wnt5a expression after HSP70 stimulation (Western blot): induced upregulation

## IL-1β: recombinant IL-1β at titrated concentrations
[3]; titrated concentrations of recombinant IL-1β
  induction of Wnt5a expression by tumor cells: no evidence

B1: rWnt5a: recombinant Wnt5a (100-200 ng/ml, R&D Systems/Bio-techne, 645-WN-010) (protein, UniProt P41221 62-380, looked up)
Protein Wnt-5a: IIGAQPLCSQLAGLSQGQKKLCHLYQDHMQYIGEGAKTGIKECQYQFRHRRWNCSTVDNTSVFGRVMQIGSRETAFTYAVSAAGVVNAMSRACREGELSTCGCSRAARPKDLPRDWLWGGCGDNIDYGYRFAKEFVDARERERIHAKGSYESARILMNLHNNEAGRRTVYNLADVACKCHGVSGSCSLKTCWLQLADFRKVGDALKEKYDSAAAMRLNSRGKLVQVNSRFNSPTTQDLVYIDPSPDYCVRNESTGSLGTQGRLCNKTSEGMDGCELMCCGRGYDQFKTVQTERCHCKFHWCCYVKCKKCTEIVDQFVCK
[3]; BRAFV600E PTEN−/− Wnt5aKD cells, qRT-PCR
  diminished CXCL5 expression of Wnt5a-knockdown cell line after addition of rWnt5a: rescued
[3]; rWnt5a at various time points
  YAP stabilization (Western blot): induced
[3]; rWnt5a versus vehicle control
  Cxcl2, Cxcl5 and Cxcl1 gene expression (qRT-PCR): induced
[3]; rWnt5a, in a YAP-dependent manner
  CXCL5 expression (Western blot): stimulating
